In this assay the test system is 743489-274-T-PDC complex spheroid growth. In words: Anticancer human tumor 743489-274-T-PDC patient-derived renal cell carcinoma cell line growth inhibition [AhR]. Conditions: for viability, T/C: stronger effect = lower value; for IC50: curve of compound. The text has this:
Multicellular complex tumor spheroid response to aryl hydrocarbon receptor antagonists in combination with a variety of drugs and investigational agents in selected tumor cell lines
The current study was undertaken to assess response to aryl hydrocarbon receptor antagonists in combination with standard-of-care drugs and investigational agents in solid tumor complex spheroid models. Complex spheroids include a stromal component modeled by human endothelial cells (HUVEC) and fibroblasts modeled by human mesenchymal stem cells (MSCs). The concentration ranges selected for each drug and investigational agent were based upon clinically achievable concentrations if the clinical Cmax of the agent was known.
Compounds. The drugs and investigational agents: BAY 2416964 (NSC825713), GNF351 (NSC835774), CH-223191 (NSC835775), CPI-455 (NSC825282), aza-TdCyd (NSC777586), decitabine (NSC127716), belinostat (NSC758774), entinostat (NSC756642), pevonedistat (NSC761192), tazemetostat (NSC777109), talazoparib (NSC765396), olaparib (NSC753686), selinexor (NSC780203), nedisertib (M3814, NSC802822), bortezomib (NSC756655), venetoclax (NSC766270), doxorubicin (NSC123127), elimusertib (BAY189344, NSC800525), ceralasertib (AZD6738, NSC777638), TAK-243 (NSC785004), alisertib (NSC759677), etoposide (NSC141540), topotecan (NSC609699), eribulin (NSC707389), gemcitabine (NSC613327), carboplatin (NSC241240), cisplatin (NSC119875), and SN-38 (NSC673596) were obtained from the National Cancer Institute (NCI) Developmental Therapeutics Program Chemical Repository (32). The FDA-approved anticancer drug set is available from the Developmental Therapeutics Program at https://dtp.cancer.gov/organization/dscb/obtaining/available plates.htm. […] The stock solutions were prepared in dimethyl sulfoxide (DMSO, Sigma-Aldrich, St. Louis, MO, cat. D2650), except for the platinum compounds which were prepared in saline (Quality Biological, Gaithersburg, MD, cat. 114-055-101), at 800-fold the tested concentration and stored at -70 degrees C prior to their use. All drugs and investigational agents were tested over a range starting from a high concentration at or near the clinical Cmax and decreasing in half-log increments. If the clinical Cmax for an agent had not been determined, the highest concentration tested was 10 microM (Table 1).
Cell Culture. All cells were maintained in an incubator at 37 degrees C and 5% CO2 with 95% humidity. The PDC lines were cultured according to standard operating procedures established by the NCI PDMR (https://pdmr.cancer.gov). Briefly, all PDCs were thawed and cultured in Matrigel-coated flasks prepared with a working solution of 1X Ham's F-12 nutrient mix, without supplementation (Invitrogen, Waltham, MA, cat. 11765054), 100 U/mL penicillin-streptomycin (Invitrogen, cat. 15140122), and 2.5% Matrigel (Corning Inc., Corning, NY, cat. 354248) for the first three passages. All PDCs were cultured in complete DMEM/F-12 media containing advanced DMEM/F-12 (Invitrogen, cat. 12634028), 4.9% defined fetal bovine serum, heat inactivated (HyClone Laboratories Inc., Logan, UT, cat. SH30070.03HI), 389 ng/mL hydrocortisone (Sigma-Aldrich, cat. H4001), 9.7 ng/mL human EGF recombinant protein (Invitrogen, cat. PHG0313), 23.4 microg/mL adenine (Sigma-Aldrich, cat. A2786), 97.3 U/mL penicillin-streptomycin (Invitrogen, cat. 15140122), 1.9 mM L-glutamine (Invitrogen, cat. 25030081), and 9.7 microM Y-27632 dihydrochloride (Tocris Bioscience, Bristol, United Kingdom, cat. 1254). The PDCs were cultured in complete DMEM/F12 media without 10 microM Y-27632 dihydrochloride for at least two passages prior to the screen. The established cell lines NCI-H1341 and […] were cultured in DMEM/F-12, HEPES (Invitrogen, cat. 11330032), 5% defined fetal bovine serum (HyClone Laboratories Inc., cat. SH30070.03), ITS premix universal culture supplement [insulin (5 microg/mL), transferrin (5 microg/mL), and selenious acid (5 ng/mL)] […]

“And” between values parts separate entries of the source, which are not always exact repeats. Equal entries are not always repeated. A value given as a limit tells only on which side of the number the result lay.
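Note: spheroids exposed to agents for 7 days before readout.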
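Throughout, for viability, T/C: 100% = DMSO vehicle control wells.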

The viability, T/C is the ratio of treated to control. What is called IC50 is the concentration at which inhibition is half-maximal. As for `Cn1ncnc1C1c2n[nH]c(=O)c3cc(F)cc(c23)NC1c1ccc(F)cc1` (stereo not drawn), the IC50 was over 0.1 µM. Besides, for the setting “compound 0.000316 µM”, the viability, T/C was 100% and 101% and 102%. Besides, the viability, T/C (compound 0.001 µM) was 105% and 111% and 108%. The viability, T/C (compound 0.00316 µM) was 95.8% and 107% and 98.2%. Besides, the viability, T/C (compound 0.01 µM) was 91.2% and 103% and 108%. For the same molecule, for the setting “compound 0.0316 µM”, the viability, T/C was 97.2% and 95.4% and 95.6%. The viability, T/C (compound 0.1 µM) is 103% and 94% and 99.3%.

For the molecule `NS(=O)(=O)OCC1CC(n2ccc3c(NC4CCc5ccccc54)ncnc32)CC1O` (stereo not drawn), the IC50 is over 10 µM. The viability, T/C (compound 0.0316 µM) is 102% and 104% and 93.9%. For the same molecule, for the setting “compound 0.1 µM”, the viability, T/C was 105% and 121% and 96.2%. For the same molecule, the viability, T/C (compound 0.316 µM) is 114% and 108% and 103%. For the setting “compound 1 µM”, the viability, T/C was 132% and 136% and 138%. The viability, T/C (compound 3.16 µM) is 137% and 132% and 156%. Further, for the setting “compound 10 µM”, the viability, T/C is 150% and 128% and 161%.

`Nc1ccccc1NC(=O)c1ccc(CNC(=O)OCc2cccnc2)cc1`: the IC50 was 6.73 µM and 5.17 µM and 5.09 µM. Moreover, the viability, T/C (compound 0.0316 µM) is 95% and 98.2% (2×). Besides, the viability, T/C (compound 0.1 µM) is 91.3% and 103% (2×). For the same molecule, the viability, T/C (compound 0.316 µM) was 82.6% and 96.2% and 85.1%. Moreover, under “compound 1 µM”, the viability, T/C is 75.5% and 87.3% and 72.5%. In addition, under “compound 3.16 µM”, the viability, T/C was 57.6% and 59% and 59.5%. For the same molecule, the viability, T/C (compound 10 µM) was 45.6% and 37.9% and 39.1%.

Regarding `Nc1ccn(C2OC(CO)C(O)C2(F)F)c(=O)n1` (stereo not drawn), the IC50 was over 10 µM. Also, the viability, T/C (compound 0.0316 µM) was 92.4% and 67.2% and 87.8%. The viability, T/C (compound 0.1 µM) was 73.3% and 58.7% and 72.8%. For the same molecule, under “compound 0.316 µM”, the viability, T/C is 69.8% and 60.6% and 73.5%. Also, the viability, T/C (compound 1 µM) is 63% and 53.5% and 70.8%. Moreover, the viability, T/C (compound 3.16 µM) is 71.4% and 61.4% and 66.6%. Moreover, where the note is “compound 10 µM”, the viability, T/C was 73.7% and 62.2% and 66.3%.

As to `Nc1ncn(C2CC(O)C(CO)O2)c(=O)n1` (stereo not drawn), the 50% inhibitory concentration (IC50) was over 1 µM. Moreover, under “compound 0.00316 µM”, the viability, T/C is 94.8% and 98.8% and 101%. Further, for the setting “compound 0.01 µM”, the viability, T/C was 112% and 106% (2×). For the same molecule, the viability, T/C (compound 0.0316 µM) is 102% and 106% and 105%. Moreover, the viability, T/C (compound 0.1 µM) was 90.8% and 93.7% and 102%. In addition, the viability, T/C (compound 0.316 µM) was 100% and 96.7% and 104%. Further, the viability, T/C (compound 1 µM) was 94% and 93.5% (2×).

Consider `Nc1ncn(C2CC(O)C(CO)S2)c(=O)n1` (stereo not drawn), for which the IC50 is over 0.3 µM. For the same molecule, the viability, T/C (compound 0.000949 µM) was 110% and 93.5% and 116%. Also, the viability, T/C (compound 0.003 µM) is 104% and 98.1% and 105%. Further, the viability, T/C (compound 0.00949 µM) was 96.2% and 94.2% and 111%. In addition, the viability, T/C (compound 0.03 µM) was 102% and 85.6% and 96.6%. Further, the viability, T/C (compound 0.0949 µM) is 97.2% and 95% and 103%. Further, the viability, T/C (compound 0.3 µM) was 97.2% and 89.2% and 103%.

In the case of `O=C(C=Cc1cccc(S(=O)(=O)Nc2ccccc2)c1)NO`, the 50% inhibitory concentration (IC50) was > 10 µM and 4.74 µM. Also, for the setting “compound 0.0316 µM”, the viability, T/C was 101% and 91.6% and 104%. In addition, the viability, T/C (compound 0.1 µM) was 95.5% and 88.6% and 91.7%. The viability, T/C (compound 0.316 µM) was 93.9% and 90.1% and 87.8%. The viability, T/C (compound 1 µM) was 84.5% and 64.3% and 93%. Besides, the viability, T/C (compound 3.16 µM) was 83.8% and 59.3% and 84.6%. The viability, T/C (compound 10 µM) was 59.8% and 39.6% and 51.1%.

Take `O=C(C=Cn1cnc(-c2cc(C(F)(F)F)cc(C(F)(F)F)c2)n1)NNc1cnccn1`: the IC50 was over 3 µM. Further, where the note is “compound 0.00949 µM”, the viability, T/C was 102% and 119% and 97.2%. The viability, T/C (compound 0.03 µM) was 104% and 110% (2×). Further, for the setting “compound 0.0949 µM”, the viability, T/C was 105% and 119% and 115%. Moreover, under “compound 0.3 µM”, the viability, T/C is 115% and 107% and 129%. The viability, T/C (compound 0.949 µM) is 114% and 113% and 116%. The viability, T/C (compound 3 µM) is 93.8% and 94.4% and 92.8%.

For the molecule `O=C(c1cc(Cc2n[nH]c(=O)c3ccccc23)ccc1F)N1CCN(C(=O)C2CC2)CC1`, the IC50 is over 10 µM. The viability, T/C (compound 0.0316 µM) is 95.7% and 110% and 102%. Moreover, where the note is “compound 0.1 µM”, the viability, T/C is 101% and 105% and 113%. Besides, the viability, T/C (compound 0.316 µM) was 103% (2×) and 97.1%. Further, the viability, T/C (compound 1 µM) is 92.9% and 102% and 112%. Also, under “compound 3.16 µM”, the viability, T/C was 102% and 101% and 109%. For the same molecule, where the note is “compound 10 µM”, the viability, T/C was 96.3% and 110% and 106%.
